Several values for one entry are separate records, joined by “and”; a condition that tells them apart may be missing. Identical values can stand only once.
Key:
[1] = Biodistribution of 2-[125I]BP and 3-[125I]BP in Sprague Dawley rats; assay type: in vivo; conditions: for Biodistribution Blood / Biodistribution Brain / Biodistribution Heart / Biodistribution Kidney / Biodistribution Liver / Biodistribution Lung / Biodistribution Muscle / Biodistribution Spleen / Biodistribution Thyroid: average of four rats
Method: A similar procedure was performed with 2-[^125I]BP and 3-[^125I]BP but blood samples were only collected at 1, 6 and 24 hours.

[2] = test system: human A2058 melanoma xenografts; experiment: Biodistribution in nude mice xenografted with human melanotic melanoma; assay type: in vivo, Balb/c nu/nu mice; conditions: for RATIO Tumor/Blood / RATIO Tumor/Muscle / Biodistribution Blood / Biodistribution Bone / Biodistribution Brain / Biodistribution Heart / Biodistribution Intestine / Biodistribution Kidney / Biodistribution Liver / Biodistribution Lung / Biodistribution Muscle / Biodistribution Spleen / Biodistribution Stomach / Biodistribution Thyroid / Biodistribution Tumor: nude mice, human melanotic melanoma, mean (std. dev.); for Biodistribution Blood / Biodistribution Bone / Biodistribution Brain / Biodistribution Heart / Biodistribution Intestine / Biodistribution Kidney / Biodistribution Liver / Biodistribution Lung / Biodistribution Muscle / Biodistribution Spleen / Biodistribution Stomach / Biodistribution Thyroid / Biodistribution Tumor: n = 6
Method: A2058 tumor cells, derived from a brain metastasis of human malignant melanoma (Todaro et al. 1980 Proc. Natl. Acad. Sci. USA 77:5258) were obtained from the National Institutes of Health. […] Suspension of 5×10^6 cells (viability greater than 95%) in 0.2 mL of medium were inoculated subcutaneously in female Balb/c nu/nu mice. After about two weeks, solid tumors of about 1 cm in diameter appeared in approximately 85% of all inoculated mice. […] Balb/c nu/nu mice (17-22 g) were injected intravenously with 0.2 ml of a saline solution containing [^125I]PAB (5-6 μCi). […] The values obtained were normalized to a mouse weighing 20 g. The differences between [^125I]PAB and [^125I]DAB were examined by Student's unpaired t tests.

[3] = test system: human squamous cell carcinoma xenografts; experiment: Biodistribution in nude mice xenografted with human squamous cell carcinoma; assay type: in vivo, Balb/c nu/nu mice; conditions: for Biodistribution Blood / Biodistribution Bone / Biodistribution Brain / Biodistribution Heart / Biodistribution Intestine / Biodistribution Kidney / Biodistribution Liver / Biodistribution Lung / Biodistribution Spleen / Biodistribution Stomach / Biodistribution Thyroid / Biodistribution Tumor: nude mice, human squamous cell carcinoma, mean (std. dev.), n = 6
Method: Non-small cell lung carcinoma cell lines NCI-157, NCI-838 and NCI-1299 were obtained from the National Cancer Institute. The NCI-157 cell line is a squamous carcinoma cell line, while NCI-838 is an adenocarcinoma cell line and NCI-1299 is a large cell lung carcinoma cell. […] Suspension of 5×10^6 cells (viability greater than 95%) in 0.2 mL of medium were inoculated subcutaneously in female Balb/c nu/nu mice. After about two weeks, solid tumors of about 1 cm in diameter appeared in approximately 85% of all inoculated mice. […] Balb/c nu/nu mice (17-22 g) were injected intravenously with 0.2 ml of a saline solution containing [^125I]PAB (5-6 μCi). […] The values obtained were normalized to a mouse weighing 20 g.

## O=C(NC1CCN(Cc2ccccc2)CC1)c1cccc([125I])c1 [3-[^125I]BP, ^125I-(N-Benzylpiperidin-4-yl)-3-iodobenzamide]
[1]
  clearance: fast clearance from the blood
[1]; 1 hr.
  Biodistribution Blood: 0.75 % ID/whole organ and 0.75 ± 0.05 % ID/whole organ
  Biodistribution Brain: 0.61 ± 0.04 % ID/whole organ
  Biodistribution Heart: 0.15 ± 0.01 % ID/whole organ
  Biodistribution Kidney: 3.49 ± 0.23 % ID/whole organ
  Biodistribution Liver: 13.35 ± 0.62 % ID/whole organ
  Biodistribution Lung: 0.82 ± 0.07 % ID/whole organ
  Biodistribution Muscle: 9.36 ± 0.58 % ID/whole organ
  Biodistribution Spleen: 0.47 ± 0.02 % ID/whole organ
  Biodistribution Thyroid: 0.13 ± 0.02 % ID/whole organ
[1]; 6 hr.
  Biodistribution Blood: 0.55 ± 0.13 % ID/whole organ
  Biodistribution Brain: 0.53 ± 0.26 % ID/whole organ
  Biodistribution Heart: 0.07 ± 0.01 % ID/whole organ
  Biodistribution Kidney: 2.25 ± 0.16 % ID/whole organ
  Biodistribution Liver: 9.06 ± 0.71 % ID/whole organ
  Biodistribution Lung: 0.43 ± 0.05 % ID/whole organ
  Biodistribution Muscle: 1.23 ± 0.49 % ID/whole organ
  Biodistribution Spleen: 0.37 ± 0.05 % ID/whole organ
  Biodistribution Thyroid: 0.53 ± 0.26 % ID/whole organ
[1]; 24 hr.
  Biodistribution Blood: 0.52 ± 0.05 % ID/whole organ
  Biodistribution Brain: 0.81 ± 0.07 % ID/whole organ
  Biodistribution Heart: 0.15 ± 0.01 % ID/whole organ
  Biodistribution Kidney: 1.75 ± 0.13 % ID/whole organ
  Biodistribution Liver: 6.65 ± 1.63 % ID/whole organ
  Biodistribution Lung: 1.05 ± 0.04 % ID/whole organ
  Biodistribution Muscle: 03.7 ± 0.44 % ID/whole organ
  Biodistribution Spleen: 0.65 ± 0.08 % ID/whole organ
  Biodistribution Thyroid: 3.43 ± 0.21 % ID/whole organ

## O=C(NCCN1CCCCC1)c1ccc([125I])cc1 [[^125I]PAB, ^125I(2-piperidinylaminoethyl)4-iodobenzamide]
[2]; 1 Hour
  RATIO Tumor/Blood: 4.16 (1.09)
  RATIO Tumor/Muscle: 7.16 (1.50)
  Biodistribution Blood: 0.967 (.168) % ID/g
  Biodistribution Bone: 0.750 (.0663) % ID/g
  Biodistribution Brain: 0.895 (.0887) % ID/g
  Biodistribution Heart: 1.14 (.207) % ID/g
  Biodistribution Intestine: 10.64 (.541) % ID/g
  Biodistribution Kidney: 3.82 (.561) % ID/g
  Biodistribution Liver: 6.36 (.770) % ID/g
  Biodistribution Lung: 2.34 (.277) % ID/g
  Biodistribution Muscle: 0.552 (.0711) % ID/g
  Biodistribution Spleen: 3.11 (.789) % ID/g
  Biodistribution Stomach: 3.23 (.697) % ID/g
  Biodistribution Thyroid: 4.23 (.594) % ID/g
  Biodistribution Tumor: 3.87 (.470) % ID/g
[2]; 6 Hour
  RATIO Tumor/Blood: 14.9 (5.07)
  RATIO Tumor/Muscle: 32.5 (12.0)
  Biodistribution Blood: 0.208 (.0542) % ID/g
  Biodistribution Bone: 0.115 (.0236) % ID/g
  Biodistribution Brain: 0.122 (.0331) % ID/g
  Biodistribution Heart: 0.167 (.0372) % ID/g
  Biodistribution Intestine: 2.46 (1.18) % ID/g
  Biodistribution Kidney: 0.483 (.131) % ID/g
  Biodistribution Liver: 1.16 (.212) % ID/g
  Biodistribution Lung: 0.387 (.0568) % ID/g
  Biodistribution Muscle: 0.0983 (.0306) % ID/g
  Biodistribution Spleen: 0.330 (.105) % ID/g
  Biodistribution Stomach: 0.757 (.298) % ID/g
  Biodistribution Thyroid: 0.583 (.203) % ID/g
  Biodistribution Tumor: 2.91 (.463) % ID/g
[2]; 24 Hour
  RATIO Tumor/Blood: 17.8 (6.10)
  RATIO Tumor/Muscle: 94.5 (32.5)
  Biodistribution Blood: 0.0617 (.018) % ID/g
  Biodistribution Bone: 0.0133 (.0052) % ID/g
  Biodistribution Brain: 0.0067 (.0052) % ID/g
  Biodistribution Heart: 0.0283 (.0075) % ID/g
  Biodistribution Intestine: 0.132 (.0852) % ID/g
  Biodistribution Kidney: 0.0850 (.016) % ID/g
  Biodistribution Liver: 0.263 (.0216) % ID/g
  Biodistribution Lung: 0.0717 (.0075) % ID/g
  Biodistribution Muscle: 0.0117 (.0041) % ID/g
  Biodistribution Spleen: 0.0383 (.015) % ID/g
  Biodistribution Stomach: 0.130 (0.881) % ID/g
  Biodistribution Thyroid: 0.100 (.143) % ID/g
  Biodistribution Tumor: 1.028 (.239) % ID/g
[2]; 24 hrs., melanoma xenograft
  amount in tumors relative to livers: about four-fold
  tumor concentration relative to that of [125I]DAB: twice
[3]; 1 hr.
  Biodistribution Blood: 1.99 (0.35) % ID/g
  Biodistribution Bone: 2.03 (0.28) % ID/g
  Biodistribution Brain: 1.80 (0.17) % ID/g
  Biodistribution Heart: 2.25 (0.07) % ID/g
  Biodistribution Intestine: 12.63 (0.43) % ID/g
  Biodistribution Kidney: 6.56 (0.04) % ID/g
  Biodistribution Liver: 10.48 (1.26) % ID/g
  Biodistribution Lung: 4.91 (0.25) % ID/g
  Biodistribution Spleen: 3.97 (0.18) % ID/g
  Biodistribution Stomach: 5.57 (1.31) % ID/g
  Biodistribution Thyroid: 7.84 (0.91) % ID/g
  Biodistribution Tumor: 4.27 (0.40) % ID/g
[3]; 6 hr.
  Biodistribution Blood: 0.51 (0.03) % ID/g
  Biodistribution Bone: 0.56 (0.18) % ID/g
  Biodistribution Brain: 0.29 (0.01) % ID/g
  Biodistribution Heart: 0.49 (0.03) % ID/g
  Biodistribution Intestine: 11.41 (0.52) % ID/g
  Biodistribution Kidney: 1.61 (0.28) % ID/g
  Biodistribution Liver: 3.47 (0.23) % ID/g
  Biodistribution Lung: 1.10 (0.03) % ID/g
  Biodistribution Spleen: 0.86 (0.20) % ID/g
  Biodistribution Stomach: 3.46 (0.18) % ID/g
  Biodistribution Thyroid: 2.80 (0.49) % ID/g
  Biodistribution Tumor: 3.27 (0.33) % ID/g
[3]; 24 hr.
  Biodistribution Blood: 0.15 (0.07) % ID/g
  Biodistribution Bone: 0.02 (0.00) % ID/g
  Biodistribution Brain: 0.01 (0.00) % ID/g
  Biodistribution Heart: 0.03 (0.00) % ID/g
  Biodistribution Intestine: 0.38 (0.09) % ID/g
  Biodistribution Kidney: 0.13 (0.00) % ID/g
  Biodistribution Liver: 0.39 (0.02) % ID/g
  Biodistribution Lung: 0.08 (0.00) % ID/g
  Biodistribution Spleen: 0.05 (0.00) % ID/g
  Biodistribution Stomach: 0.20 (0.03) % ID/g
  Biodistribution Thyroid: 0.09 (0.01) % ID/g
  Biodistribution Tumor: 0.66 (0.12) % ID/g
[3]; 24 hrs. post-injection, squamous cell carcinoma xenograft
  tumor concentration relative to that of [125I]DAB: more than three-fold

Source: patent US6447748B1, “Benzamide compounds for cancer imaging and therapy” (Research Corporation Technologies, Inc., priority 1993, dated 2002)
